The values that follow are results of earlier work, collected in patent publication US20190008969A1, “COMPOSITIONS FOR DRUG DELIVERY” (Tioga Research, Inc., priority 2017, published 2019).

The conditions of the data set: spray format at 0.25 wt %.

On to `C[C@@H]1C[C@H]2[C@@H]3CCC4=CC(=O)C=C[C@]4(C)[C@@]3(F)[C@@H](O)C[C@]2(C)[C@H]1C(=O)CO` [desoximetasone, (8S,9S,10S,11S,13S,14S,16R,17S)-9-fluoro-11-hydroxy-17-(2-hydroxyacetyl)-10,13,16-trirmethyl-7,8,11,12,14,15,16,17-octahydro-6H-cyclopenta[a]phenanthren-3-one], for which the “Efficacy in treating psoriasis” value is “efficacious” and the “Safety in treating psoriasis” value is recorded as “safe”.
